# Data: US20250262201A1, “COMPOUNDS AND METHODS USEFUL FOR STABILIZING PHENYLALANINE HYDROXYLASE MUTATIONS” (Agios Pharmaceuticals, Inc., priority 2022, published 2025)
# Biological target: T1, human PAH with the R408W mutation (Homo sapiens, UniProt P00439, R408W)
# T1 construct: expressed in transfected cells
# T1 sequence (P00439 1-452 R408W): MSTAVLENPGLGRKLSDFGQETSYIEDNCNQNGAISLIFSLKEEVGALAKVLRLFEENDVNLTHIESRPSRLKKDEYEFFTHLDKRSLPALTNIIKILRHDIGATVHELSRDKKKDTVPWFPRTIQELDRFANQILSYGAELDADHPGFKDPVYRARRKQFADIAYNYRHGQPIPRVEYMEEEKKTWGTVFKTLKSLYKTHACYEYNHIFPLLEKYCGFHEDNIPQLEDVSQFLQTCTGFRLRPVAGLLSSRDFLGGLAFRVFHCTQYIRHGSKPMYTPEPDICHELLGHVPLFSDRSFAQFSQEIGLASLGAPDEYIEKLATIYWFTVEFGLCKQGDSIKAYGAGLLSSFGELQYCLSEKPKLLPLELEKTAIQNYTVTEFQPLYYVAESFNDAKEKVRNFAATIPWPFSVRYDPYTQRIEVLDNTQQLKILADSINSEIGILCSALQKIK
# Assay: Cell Based Phenylalanine Flux Assay
# Details: A375 cells expressing human R408W PAH; 24 hrs compound incubation; 13C-Tyrosine by LC-MS; average where tested multiple times; read-out: AC50
row,Compound,AC50 [µM]
1,"O=C(c1nnc(-c2ccncc2)o1)N1CCc2[nH]cnc2[C@H]1c1cc2ccccc2cn1 [Example 448, (R)-(4-(isoquinolin-3-yl)-6,7-dihydro-1H-imidazo[4,5-c]pyridin-5(4H)-yl)(5-(pyridin-4-yl)-1,3,4-oxadiazol-2-yl)methanone]",< 0.5
2,"O=C(c1nnc(-c2cnn(C3CCC3)c2)o1)N1CCc2[nH]cnc2[C@H]1c1cc2ccccc2cn1 [Example 449, (R)-(5-(1-cyclobutyl-1H-pyrazol-4-yl)-1,3,4-oxadiazol-2-yl)(4-(isoquinolin-3-yl)-6,7-dihydro-1H-imidazo[4,5-c]pyridin-5(4H)-yl)methanone]",< 0.5
3,"Cc1nn(C)cc1-c1nnc(C(=O)N2CCc3[nH]cnc3[C@H]2c2cc3ccccc3cn2)o1 [Example 450, (R)-(5-(1,3-dimethyl-1H-pyrazol-4-yl)-1,3,4-oxadiazol-2-yl)(4-(isoquinolin-3-yl)-6,7-dihydro-1H-imidazo[4,5-c]pyridin-5(4H)-yl)methanone]",< 0.5
4,"O=C(c1nnc(-c2cc[nH]n2)o1)N1CCc2[nH]cnc2[C@H]1c1cc2ccccc2cn1 [Example 451, (R)-(5-(1H-pyrazol-3-yl)-1,3,4-oxadiazol-2-yl)(4-(isoquinolin-3-yl)-6,7-dihydro-1H-imidazo[4,5-c]pyridin-5(4H)-yl)methanone]",< 0.5
5,"O=C(c1cnn2cc(C3CC3)ccc12)N1CCc2[nH]cnc2[C@H]1c1cc2ccccc2cn1 [Example 452, (R)-(6-cyclopropylpyrazolo[1,5-a]pyridin-3-yl)(4-(isoquinolin-3-yl)-6,7-dihydro-1H-imidazo[4,5-c]pyridin-5(4H)-yl)methanone]",< 0.5
6,"COCCc1ccc2c(C(=O)N3CCc4[nH]cnc4[C@H]3c3cc4ccccc4cn3)cnn2c1 [Example 453, (R)-(4-(isoquinolin-3-yl)-6,7-dihydro-1H-imidazo[4,5-c]pyridin-5(4H)-yl)(6-(2-methoxyethyl)pyrazolo[1,5-a]pyridin-3-yl)methanone]",< 0.5
7,"O=C(c1nnc(-c2cn[nH]c2)o1)N1CCc2[nH]cnc2[C@H]1c1cc2ccccc2cn1 [Example 454, (R)-(5-(1H-pyrazol-4-yl)-1,3,4-oxadiazol-2-yl)(4-(isoquinolin-3-yl)-6,7-dihydro-1H-imidazo[4,5-c]pyridin-5(4H)-yl)methanone]",0.5 to 1
8,"Cc1cnn(C)c1-c1nnc(C(=O)N2CCc3[nH]cnc3[C@H]2c2cc3ccccc3cn2)o1 [Example 455, (R)-(5-(1,4-dimethyl-1H-pyrazol-5-yl)-1,3,4-oxadiazol-2-yl)(4-(isoquinolin-3-yl)-6,7-dihydro-1H-imidazo[4,5-c]pyridin-5(4H)-yl)methanone]",< 0.5
9,"Cn1cc(-c2ccc3c(C(=O)N4CCc5[nH]cnc5[C@H]4c4cc5ccccc5cn4)cnn3c2)cn1 [Example 456, (R)-(4-(isoquinolin-3-yl)-6,7-dihydro-1H-imidazo[4,5-c]pyridin-5(4H)-yl)(6-(1-methyl-1H-pyrazol-4-yl)pyrazolo[1,5-a]pyridin-3-yl)methanone]",< 0.5
10,"CN1CCN(c2ccc3c(C(=O)N4CCc5[nH]cnc5[C@H]4c4cc5ccccc5cn4)cnn3c2)CC1 [Example 457, (R)-(4-(isoquinolin-3-yl)-6,7-dihydro-1H-imidazo[4,5-c]pyridin-5(4H)-yl)(6-(4-methylpiperazin-1-yl)pyrazolo[1,5-a]pyridin-3-yl)methanone]",< 0.5
11,"O=C(c1cnn2cc(N3CCOCC3)ccc12)N1CCc2[nH]cnc2[C@H]1c1cc2ccccc2cn1 [Example 458, (R)-(4-(isoquinolin-3-yl)-6,7-dihydro-1H-imidazo[4,5-c]pyridin-5(4H)-yl)(6-morpholinopyrazolo[1,5-a]pyridin-3-yl)methanone]",< 0.5
12,"O=C(c1cnn2cc(Br)c(Cl)cc12)N1CCc2[nH]cnc2[C@H]1c1cc2ccccc2cn1 [Example 459, (R)-(6-bromo-5-chloropyrazolo[1,5-a]pyridin-3-yl)(4-(isoquinolin-3-yl)-6,7-dihydro-1H-imidazo[4,5-c]pyridin-5(4H)-yl)methanone]",< 0.5
13,"COc1ccc2c(C(=O)N3CCc4[nH]cnc4[C@H]3c3cc4ccccc4cn3)cnn2c1 [Example 460, (R)-(4-(isoquinolin-3-yl)-6,7-dihydro-1H-imidazo[4,5-c]pyridin-5(4H)-yl)(6-methoxypyrazolo[1,5-a]pyridin-3-yl)methanone]",< 0.5
14,"O=C(c1cnn2cc(-c3ccccn3)ccc12)N1CCc2[nH]cnc2[C@H]1c1cc2ccccc2cn1 [Example 461, (R)-(4-(isoquinolin-3-yl)-6,7-dihydro-1H-imidazo[4,5-c]pyridin-5(4H)-yl)(6-(pyridin-2-yl)pyrazolo[1,5-a]pyridin-3-yl)methanone]",< 0.5
15,"O=C(c1cnn2ccc(Cl)cc12)N1CCc2[nH]cnc2[C@H]1c1cc2ccccc2cn1 [Example 462, (R)-(5-chloropyrazolo[1,5-a]pyridin-3-yl)(4-(isoquinolin-3-yl)-6,7-dihydro-1H-imidazo[4,5-c]pyridin-5(4H)-yl)methanone]",< 0.5
16,"O=C(c1cnn2cc(N3CCOCC3)c(Cl)cc12)N1CCc2[nH]cnc2[C@H]1c1cc2ccccc2cn1 [Example 463, (R)-(5-chloro-6-morpholinopyrazolo[1,5-a]pyridin-3-yl)(4-(isoquinolin-3-yl)-6,7-dihydro-1H-imidazo[4,5-c]pyridin-5(4H)-yl)methanone]",< 0.5
17,"CN1CCN(c2cn3ncc(C(=O)N4CCc5[nH]cnc5[C@H]4c4cc5ccccc5cn4)c3cc2Cl)CC1 [Example 464, (R)-(5-chloro-6-(4-methylpiperazin-1-yl)pyrazolo[1,5-a]pyridin-3-yl)(4-(isoquinolin-3-yl)-6,7-dihydro-1H-imidazo[4,5-c]pyridin-5(4H)-yl)methanone]",< 0.5
18,"C[C@@H](O)c1nnc(C(=O)N2CCc3[nH]cnc3[C@H]2c2cc3ccccc3cn2)o1 [Example 465, (5-((R)-1-hydroxyethyl)-1,3,4-oxadiazol-2-yl)((R)-4-(isoquinolin-3-yl)-6,7-dihydro-1H-imidazo[4,5-c]pyridin-5(4H)-yl)methanone]",0.5 to 1
19,"Cc1ccc2c(C(=O)N3CCc4[nH]cnc4[C@H]3c3cc4ccccc4cn3)cnn2c1 [Example 466, (R)-(4-(isoquinolin-3-yl)-6,7-dihydro-1H-imidazo[4,5-c]pyridin-5(4H)-yl)(6-methylpyrazolo[1,5-a]pyridin-3-yl)methanone]",< 0.5
20,"O=C(c1cnn2cc(Cl)ccc12)N1CCc2[nH]cnc2[C@H]1c1cc2ccccc2cn1 [Example 467, (R)-(6-chloropyrazolo[1,5-a]pyridin-3-yl)(4-(isoquinolin-3-yl)-6,7-dihydro-1H-imidazo[4,5-c]pyridin-5(4H)-yl)methanone]",< 0.5
21,"CN(C)CCc1ccc2c(C(=O)N3CCc4[nH]cnc4[C@H]3c3cc4ccccc4cn3)cnn2c1 [Example 468, (R)-(6-(2-(dimethylamino)ethyl)pyrazolo[1,5-a]pyridin-3-yl)(4-(isoquinolin-3-yl)-6,7-dihydro-1H-imidazo[4,5-c]pyridin-5(4H)-yl)methanone]",< 0.5
22,"O=C(c1nnc(-c2cnccn2)o1)N1CCc2[nH]cnc2[C@H]1c1cc2ccccc2cn1 [Example 469, (R)-(4-(isoquinolin-3-yl)-6,7-dihydro-1H-imidazo[4,5-c]pyridin-5(4H)-yl)(5-(pyrazin-2-yl)-1,3,4-oxadiazol-2-yl)methanone]",< 0.5
23,"CN(C)c1ccc2c(C(=O)N3CCc4[nH]cnc4[C@H]3c3cc4ccccc4cn3)cnn2c1 [Example 470, (R)-(6-(dimethylamino)pyrazolo[1,5-a]pyridin-3-yl)(4-(isoquinolin-3-yl)-6,7-dihydro-1H-imidazo[4,5-c]pyridin-5(4H)-yl)methanone]",< 0.5
24,"O=C(c1nnc(-c2ccncn2)o1)N1CCc2[nH]cnc2[C@H]1c1cc2ccccc2cn1 [Example 471, (R)-(4-(isoquinolin-3-yl)-6,7-dihydro-1H-imidazo[4,5-c]pyridin-5(4H)-yl)(5-(pyrimidin-4-yl)-1,3,4-oxadiazol-2-yl)methanone]",< 0.5
25,"Cc1cc(-c2nnc(C(=O)N3CCc4[nH]cnc4[C@H]3c3cc4ccccc4cn3)o2)nn1C [Example 472, (R)-(5-(1,5-dimethyl-1H-pyrazol-3-yl)-1,3,4-oxadiazol-2-yl)(4-(isoquinolin-3-yl)-6,7-dihydro-1H-imidazo[4,5-c]pyridin-5(4H)-yl)methanone]",< 0.5
26,"O=C(c1nnc(-c2ncccn2)o1)N1CCc2[nH]cnc2[C@H]1c1cc2ccccc2cn1 [Example 473, (R)-(4-(isoquinolin-3-yl)-6,7-dihydro-1H-imidazo[4,5-c]pyridin-5(4H)-yl)(5-(pyrimidin-2-yl)-1,3,4-oxadiazol-2-yl)methanone]",< 0.5
27,"O=C(c1cnn2cc(N3CCC(F)CC3)ccc12)N1CCc2[nH]cnc2[C@H]1c1cc2ccccc2cn1 [Example 474, (R)-(6-(4-fluoropiperidin-1-yl)pyrazolo[1,5-a]pyridin-3-yl)(4-(isoquinolin-3-yl)-6,7-dihydro-1H-imidazo[4,5-c]pyridin-5(4H)-yl)methanone]",1 to 5
28,"O=C(c1cnn2cc(-c3cccnc3)ccc12)N1CCc2[nH]cnc2[C@H]1c1cc2ccccc2cn1 [Example 475, (R)-(4-(isoquinolin-3-yl)-6,7-dihydro-1H-imidazo[4,5-c]pyridin-5(4H)-yl)(6-(pyridin-3-yl)pyrazolo[1,5-a]pyridin-3-yl)methanone]",< 0.5
